# Assay results taken from patent publication US9914698B2, “Stearoyl amino acid salt and preparation method and application thereof” (Shanghai Jiaotong University School of Medicine, priority 2014, dated 2018).
# Read-outs that look alike come from different tables or passages of the source.
# Key:
# [1] = Stability assessment (influencing factors, acceleration and long-term tests, Chinese Pharmacopoeia 2010); format: physicochemical; conditions: high temperature, high humidity, strong light
# Method: Considering that prototype drug stearoyl amino acid tend to absorb moisture, cake and become yellowish during long-term storage, the stearoyl amino acid is now converted into a form of active salt thereof. And the stability of NsTyr-2K and NsTyr-2Na was tested as required for bulk pharmaceutical chemicals according to the People's Republic of China Pharmacopoeia 2010.
# [2] = tested on: gerbil model with global ischemia reperfusion injury; test: Neurobehavioral scores of acute cerebral ischemia reperfusion model; format: in vivo; conditions: ischemic model group 3.1+/−0.32
# Description: Taking N-stearoyl amino acid potassium NsTyr-2K as an example, a gerbil model with global ischemia reperfusion injury was used to assess the protective role of NsTyr-2K against neurobehavioral disorder caused by cerebral ischemia-reperfusion injury by examining the changing behavioral indexes such as spatial, learning and cognitive functions in the perspective of overall animals during passive dark avoidance test and Morris water maze test.
# [3] = Apparent lipid-water distribution coefficient; format: physicochemical
# Method: The shake-flask method was used to test the equilibrium solubility of NsTyr, NsTyr-2K, NsTyr-2Na in water at 37° C. […] The apparent lipid-water distribution coefficient log p of NsTyr-2K, NsTyr-2Na was respectively 1.512 and 1.477. Under different pHs, see Table 1 for the equilibrium solubility test data of NsTyr-2K, NsTyr-2Na; and see Table 2 for the apparent lipid-water distribution coefficient of NsTyr-2K and NsTyr-2Na.
compound,measurement,setting,value
"CCCCCCCCCCCCCCCCCC(=O)N[C@@H](Cc1ccc(O)cc1)C(=O)[O-].[K+] [NsTyr-2K, N-stearoyl tyrosine potassium salt]",stability,[1],stable properties
same,neurobehavioral score,[2]; 15 mg/kg,1.76+/−0.48
same,neurobehavioral score,[2]; 30 mg/kg,1.25+/−0.31
same,logP,[3],1.51
same,Apparent lipid-water distribution coefficient Ko/w,[3]; buffer pH 2.0,76.020
same,logP,"[3]; buffer pH 2.0, read-out: Apparent lipid-water distribution coefficient LogP",1.88
same,Apparent lipid-water distribution coefficient Ko/w,[3]; buffer pH 3.0,30.571
same,logP,"[3]; buffer pH 3.0, read-out: Apparent lipid-water distribution coefficient LogP",1.49
same,Apparent lipid-water distribution coefficient Ko/w,[3]; buffer pH 4.0,16.020
same,logP,"[3]; buffer pH 4.0, read-out: Apparent lipid-water distribution coefficient LogP",1.21
same,Apparent lipid-water distribution coefficient Ko/w,[3]; buffer pH 5.0,21.934
same,logP,"[3]; buffer pH 5.0, read-out: Apparent lipid-water distribution coefficient LogP",1.34
same,Apparent lipid-water distribution coefficient Ko/w,[3]; buffer pH 6.0,28.935
same,logP,"[3]; buffer pH 6.0, read-out: Apparent lipid-water distribution coefficient LogP",1.46
same,Apparent lipid-water distribution coefficient Ko/w,[3]; buffer pH 7.0,37.855
same,logP,"[3]; buffer pH 7.0, read-out: Apparent lipid-water distribution coefficient LogP",1.58
same,Apparent lipid-water distribution coefficient Ko/w,[3]; buffer pH 7.4,16.674
same,logP,"[3]; buffer pH 7.4, read-out: Apparent lipid-water distribution coefficient LogP",1.22
same,Apparent lipid-water distribution coefficient Ko/w,[3]; buffer pH 8.0,13.797
same,logP,"[3]; buffer pH 8.0, read-out: Apparent lipid-water distribution coefficient LogP",1.14
same,Apparent lipid-water distribution coefficient Ko/w,[3]; buffer pH 9.0,13.140
same,logP,"[3]; buffer pH 9.0, read-out: Apparent lipid-water distribution coefficient LogP",1.12
